{
  "source": "patent US9180152B2",
  "about": "“Method for treating psoriasis” (NIKKEN SOHONSHA CORPORATION, priority 2009, dated 2015)",
  "origin": "cited, not measured here",
  "tested_on": "Psoriasis",
  "settings": "well-tolerated oral doses",
  "data": [
    {"smiles": "CC1=C(/C=C/C(C)=C\\C=C\\C(C)=C\\C(=O)O)C(C)(C)CCC1", "note": "[9-cis-retinoic acid]", "values": [
      {"measurement": "response of psoriasis", "value": "did not respond"}
    ]}
  ]
}
